Measured values published in patent US9714247B2, “Multiple kinase pathway inhibitors” (Mannkind Corporation, priority 2012, dated 2017).
Read-outs that look alike come from different tables or passages of the source.

Assays:
[1] = test system: DoHH2; assay: CellTiter-Glo proliferation/viability assay; type: cell-based, human; details: Homo sapiens, DOHH-2
[2] = test system: Ramos; assay: CellTiter-Glo proliferation/viability assay; type: cell-based, human; details: Homo sapiens, Ramos, read-out: Ramos EC50
[3] = test system: DoHH2; assay: Apoptosis by flow cytometry (Annexin V / 7AAD); type: cell-based, human; details: Table 6; for Percent Apoptosis at 2 uM: DOHH2, 2 uM; for Percent Apoptosis at 5 uM: DOHH2, 5 uM
From the text: Activation of Tec family kinases including BTK, and/or Src kinase family members, regulates cell survival and cell death in normal B cells, lymphomas, and solid tumors. Apoptosis is a programmed cell death characterized by specific changes in cell morphology. […] Staurosporine was used as a positive control for apoptosis. […] Table 6 illustrates that several amino naphthyridinones induce significant apoptosis in DoHH2 cells.

[4] = biological target: T1, Lyn (Homo sapiens (Human), UniProt P07948); details: read-out: Lyn IC50
T1 sequence (P07948 whole entry): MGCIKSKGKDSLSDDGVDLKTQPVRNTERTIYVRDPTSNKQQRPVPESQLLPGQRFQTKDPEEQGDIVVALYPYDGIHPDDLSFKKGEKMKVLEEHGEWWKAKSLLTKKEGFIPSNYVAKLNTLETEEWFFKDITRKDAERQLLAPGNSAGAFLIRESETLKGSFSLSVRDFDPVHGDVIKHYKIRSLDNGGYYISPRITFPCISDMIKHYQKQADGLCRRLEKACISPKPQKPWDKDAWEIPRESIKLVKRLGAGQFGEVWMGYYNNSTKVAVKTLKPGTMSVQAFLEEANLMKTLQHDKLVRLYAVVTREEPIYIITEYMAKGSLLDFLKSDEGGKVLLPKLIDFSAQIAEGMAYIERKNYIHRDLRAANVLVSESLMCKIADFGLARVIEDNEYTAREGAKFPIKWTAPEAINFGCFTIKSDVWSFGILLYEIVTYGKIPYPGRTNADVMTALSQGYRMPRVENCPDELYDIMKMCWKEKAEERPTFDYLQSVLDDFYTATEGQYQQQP

[5] = test system: DoHH2 cells; details: treated 24 hours
[6] = biological target: T2, Src (Homo sapiens (Human), UniProt P12931); assay: biochemical
T2 sequence (P12931 whole entry, looked up): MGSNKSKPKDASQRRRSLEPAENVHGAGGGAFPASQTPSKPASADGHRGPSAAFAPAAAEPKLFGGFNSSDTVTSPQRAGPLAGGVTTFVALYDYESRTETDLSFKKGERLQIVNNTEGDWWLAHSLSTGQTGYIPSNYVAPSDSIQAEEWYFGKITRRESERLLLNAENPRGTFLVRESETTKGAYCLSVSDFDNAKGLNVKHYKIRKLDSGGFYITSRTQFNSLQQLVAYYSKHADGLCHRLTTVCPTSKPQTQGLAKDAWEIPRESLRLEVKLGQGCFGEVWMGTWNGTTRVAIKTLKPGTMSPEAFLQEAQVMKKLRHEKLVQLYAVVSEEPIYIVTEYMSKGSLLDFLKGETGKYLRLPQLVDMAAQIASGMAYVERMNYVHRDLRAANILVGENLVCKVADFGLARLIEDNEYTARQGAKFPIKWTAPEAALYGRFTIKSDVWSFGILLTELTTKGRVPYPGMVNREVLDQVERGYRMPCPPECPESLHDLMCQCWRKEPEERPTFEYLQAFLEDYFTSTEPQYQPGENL

[7] = biological target: BTK (Homo sapiens (Human), UniProt Q06187); details: read-out: BTK IC50
Chain of BTK (Q06187 whole entry): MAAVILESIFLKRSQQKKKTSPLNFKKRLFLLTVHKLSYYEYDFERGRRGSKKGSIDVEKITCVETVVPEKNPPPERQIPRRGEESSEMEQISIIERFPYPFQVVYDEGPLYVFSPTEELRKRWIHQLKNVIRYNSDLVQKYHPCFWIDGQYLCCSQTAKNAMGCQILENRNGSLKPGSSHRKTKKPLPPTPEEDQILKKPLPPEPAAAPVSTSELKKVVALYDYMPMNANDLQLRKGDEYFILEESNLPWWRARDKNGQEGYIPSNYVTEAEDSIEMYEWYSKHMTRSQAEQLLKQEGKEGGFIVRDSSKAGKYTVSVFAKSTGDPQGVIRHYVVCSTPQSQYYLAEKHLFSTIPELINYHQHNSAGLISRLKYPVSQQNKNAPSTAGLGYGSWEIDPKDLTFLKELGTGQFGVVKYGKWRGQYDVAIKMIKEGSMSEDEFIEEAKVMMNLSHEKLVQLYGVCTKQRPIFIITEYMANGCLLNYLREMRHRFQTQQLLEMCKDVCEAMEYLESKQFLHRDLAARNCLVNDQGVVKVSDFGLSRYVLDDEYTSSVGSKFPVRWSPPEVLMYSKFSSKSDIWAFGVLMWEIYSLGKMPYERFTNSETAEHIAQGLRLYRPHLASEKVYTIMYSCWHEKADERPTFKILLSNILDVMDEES

[8] = biological target: T2, Src; details: read-out: Src IC50
[9] = biological target: T1, Lyn; assay: biochemical
[10] = test system: PLCγ2 phosphorylation in Ramos cells; assay: PLCγ2 phosphorylation by flow cytometry; type: cell-based, human; details: Homo sapiens, flow cytometry, anti-phospho PLCγ2 (Tyr1217), four concentrations, read-out: Inhibition of phosphorylation of PLC-γ2 EC50
Description: Ramos cells were cultured in RPMI 1640 media with 10% FBS and were starved overnight (18 h) in 1% FBS containing media and on the next day pretreated with inhibitor for 2 h before stimulation. Cells were stimulated to induce BTK network dependent signal transduction pathways using mouse anti-human IgM (final concentration 10 ug/ml; Invitrogen) antibodies and 3.3 mM H2O2 mixture for 2 minutes followed by F(Ab) fragment that cross-linked the anti-IgM antibody (final concentration 10 ug/ml), and 3.3 mM H2O2 for 8 minutes. Cell lysates were prepared in lysis buffer containing protease and phosphatase inhibitors, quantified using the BCA protein assay kit (Pierce) and used for Western blotting. Antibodies specifically targeted to the molecules of interest, PLCγ2 phosphorylated at Tyr1217 and total PLCγ2, (Cell Signaling Technology) were used in a standard Western blotting procedure.
PLCγ2 phosphorylation was also assessed by flow cytometry. Cells were similarly stimulated and following stimulation, Cytofix buffer (Becton Dickinson) was added, cells were centrifuged and the cell pellets incubated on ice with Phosflow perm buffer III (Becton Dickinson). These cell pellets were washed with Perm/Wash buffer (Becton Dickinson); resuspended and labeled for flow cytometry analysis in a staining mixture containing Perm/Wash buffer and PE-labeled anti-phosphoPCLγa2 (Tyr1217) antibody (Becton Dickinson). The samples were washed with Perm/Wash buffer and analyzed on a FACS Calibur flow cytometer using CellQuest Pro software. As mentioned for the Western blot experiments, phosphorylation of PLCγ2 at Tyr1217 along with Tyr753, Tyr759 and Tyr1197 is correlated with increased PLCγ2 activity. The readout for BTK network signaling was inhibition of phosphorylation of PLCγ2. Cells were gated to exclude dead or dying cells. Fluorescence signals from the antibody staining were plotted in logarithmic units and data was analyzed using Cellquest Pro software. […] An ED50 was calculated based on the geometric mean of fluorescence intensity observed for treatment for four different concentrations of the inhibitors (see Table 7 and FIG. 6). […] Thus treatment with amino naphthyridinones inhibits PLCγ2 phosphorylation consistent with inhibition of BTK and/or LYN activity.
Following stimulation, cells were prepared for analysis by flow cytometry as described above. In short, cells were fixed and permeabilized using Cytofix buffer, Phosflow perm buffer and Perm/Wash buffer (Becton Dickinson). The cells were stained with PE-labeled anti-phosphoPCLγ2 (Tyr759) antibody (Becton Dickinson) and analyzed on a FACS Calibur flow cytometer using CellQuest Pro software. […] Thus aminonaphthyridinones are useful for the indirect inhibition of PLCγ2 phosphorylation.

[11] = Table 4, DoHH2 cells, read-out: EC50 (Proliferation)

| SMILES | EC50 ([1]; 48 hrs, read-out: DoHH2 EC50) | EC50 [1, 11] | EC50 ([2]; 48 h) | Percent Apoptosis at 2 uM [3] | Percent Apoptosis at 5 uM [3] | IC50 [4] | Effect on Cell Cycle [5] | IC50 [6] | IC50 [7] | EC50 ([2]; 48 hrs) | IC50 [8] | IC50 [9] | EC50 [10] | IC50 ([9]; Lyn IC50) |
| --- | --- | --- | --- | --- | --- | --- | --- | --- | --- | --- | --- | --- | --- | --- |
| CCn1c(=O)c(-c2c(F)cccc2F)cc2cnc(Nc3ccc(F)cn3)cc21 [Compound 75, 3-(2,6-difluorophenyl)-1-ethyl-7-((5-fluoropyridin-2-yl)amino)-1,6-naphthyri-din-2 (1H)-one] | < 1000 nM | < 1000 nM | 1000 to 10000 nM | 35.66% | 39.47% | < 100 nM | G1 Arrest | 100 to 1000 nM | < 100 nM | – | – | – | – | – |
| CCN(CC)CCOc1ccc(Nc2cc3c(cn2)cc(-c2ccccc2)c(=O)n3CCOC)nc1 [Compound 24, 7-(5-(2-(diethylamino)ethoxy)pyridin-2-ylamino)-1-(2-methoxyethyl)-3-phenyl-1,6-naphthyridin-2(1H)-one] | < 1000 nM | – | – | 34.76% | 46.4% | < 100 nM | – | – | < 100 nM | 1000 to 10000 nM | < 100 nM | – | – | – |
| CCN(CC)CCOc1ccc(Nc2cc3c(cn2)cc(C(C)C)c(=O)n3C(C)C)nc1 [Compound 34, 7-[5-(2-Diethylamino-ethoxy)-pyridin-2-ylamino]-1,3-diisopropyl-1H-[1,6]naphthyridin-2-one] | – | – | 1000 to 10000 nM | 19.54% | 46.27% | < 100 nM | No Arrest | – | – | – | < 100 nM | – | – | – |
| CCN(CC)CCOc1ccc(Nc2cc3c(cn2)cc(-c2ccccc2)c(=O)n3C2CC2)nc1 [Compound 27, 1-cyclopropyl-7-(5-(2-(diethylamino)ethoxy)pyridin-2-ylamino)-3-phenyl-1,6-naphthyridin-2(1H)-one] | < 1000 nM | < 1000 nM | – | 37.05% | 54.19% | – | G1 Arrest | 100 to 1000 nM | < 100 nM | 1000 to 10000 nM | – | 100 to 1000 nM | – | – |
| CCn1c(=O)c(-c2ccccc2)cc2cnc(Nc3ccc(N4CCN(C)CC4)cn3)cc21 [Compound 43, 1-Ethyl-7-[5-(4-methyl-piperazin-1-yl)-pyridin-2-ylamino]-3-phenyl-1H-[1,6]naphthyridin-2-one] | < 1000 nM | – | – | 27.26% | 29.38% | < 100 nM | – | – | – | 1000 to 10000 nM | < 100 nM | – | 190 nM | – |
| CCN(CC)CCOc1ccc(Nc2cc3c(cn2)cc(-c2ccccc2)c(=O)n3C(C)C)nc1 [Compound 22, 7-(5-(2-(diethylamino)ethoxy)pyridin-2-ylamino)-1-isopropyl-3-phenyl-1,6-naphthyridin-2(1H)-one] | < 1000 nM | < 1000 nM | 1000 to 10000 nM | 21.68% | 25.8% | – | G1 Arrest | 100 to 1000 nM | < 100 nM | – | – | – | – | 100 to 1000 nM |
